From BindingDB's records for doi:10.1016/0028-3908(94)90059-0 (University of Alberta, 1994)
Where “and” joins values, the source holds several entries; their conditions need not be identical. Equal values may be shown once.

Experiments:
[1] = target: 5-hydroxytryptamine receptor 1E (Homo sapiens, UniProt P28566)
[2] = target: 5-hydroxytryptamine receptor 5A (Mus musculus, UniProt P30966)
[3] = target: T1, 5-hydroxytryptamine receptor 1F (Rattus norvegicus, UniProt P30940)
T1 sequence (P30940 whole entry): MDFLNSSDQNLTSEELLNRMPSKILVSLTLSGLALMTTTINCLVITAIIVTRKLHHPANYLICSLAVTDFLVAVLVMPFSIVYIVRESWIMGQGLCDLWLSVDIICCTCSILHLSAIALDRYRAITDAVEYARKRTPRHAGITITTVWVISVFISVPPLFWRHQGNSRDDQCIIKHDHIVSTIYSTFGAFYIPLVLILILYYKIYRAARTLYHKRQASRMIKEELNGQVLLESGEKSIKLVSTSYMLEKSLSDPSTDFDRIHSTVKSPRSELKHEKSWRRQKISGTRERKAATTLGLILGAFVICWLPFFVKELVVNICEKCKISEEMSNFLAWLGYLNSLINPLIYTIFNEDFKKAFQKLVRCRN

[4] = target: 5-hydroxytryptamine receptor 1B (Rattus norvegicus, UniProt P28564)
[5] = target: 5-hydroxytryptamine receptor 1D (Rattus norvegicus, UniProt P28565)
[6] = target: 5-hydroxytryptamine receptor 2B (Rattus norvegicus, UniProt P30994)
[7] = target: 5-hydroxytryptamine receptor 1B (Homo sapiens, UniProt P28222)
[8] = target: T2, 5-hydroxytryptamine receptor 3A (Mus musculus, UniProt P23979)
T2 sequence (P23979 whole entry): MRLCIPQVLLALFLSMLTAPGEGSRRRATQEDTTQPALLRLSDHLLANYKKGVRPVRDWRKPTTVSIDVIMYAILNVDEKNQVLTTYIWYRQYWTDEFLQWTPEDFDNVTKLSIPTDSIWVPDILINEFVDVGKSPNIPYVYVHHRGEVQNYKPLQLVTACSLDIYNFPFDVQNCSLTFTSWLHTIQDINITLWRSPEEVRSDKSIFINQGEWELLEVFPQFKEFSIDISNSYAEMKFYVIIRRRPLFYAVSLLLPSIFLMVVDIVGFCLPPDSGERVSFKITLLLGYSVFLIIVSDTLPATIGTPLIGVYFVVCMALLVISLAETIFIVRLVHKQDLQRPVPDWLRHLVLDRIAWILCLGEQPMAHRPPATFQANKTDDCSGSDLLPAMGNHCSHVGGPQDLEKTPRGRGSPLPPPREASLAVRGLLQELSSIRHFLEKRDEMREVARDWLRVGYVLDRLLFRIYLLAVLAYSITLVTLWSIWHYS

[9] = target: 5-hydroxytryptamine receptor 1D (Homo sapiens, UniProt P28221)
[10] = target: 5-hydroxytryptamine receptor 7 (Mus musculus, UniProt P32304)
[11] = target: 5-hydroxytryptamine receptor 1B (Mus musculus, UniProt P28334)
[12] = target: T3, 5-hydroxytryptamine receptor 1F (Mus musculus, UniProt Q02284)
T3 sequence (Q02284 whole entry): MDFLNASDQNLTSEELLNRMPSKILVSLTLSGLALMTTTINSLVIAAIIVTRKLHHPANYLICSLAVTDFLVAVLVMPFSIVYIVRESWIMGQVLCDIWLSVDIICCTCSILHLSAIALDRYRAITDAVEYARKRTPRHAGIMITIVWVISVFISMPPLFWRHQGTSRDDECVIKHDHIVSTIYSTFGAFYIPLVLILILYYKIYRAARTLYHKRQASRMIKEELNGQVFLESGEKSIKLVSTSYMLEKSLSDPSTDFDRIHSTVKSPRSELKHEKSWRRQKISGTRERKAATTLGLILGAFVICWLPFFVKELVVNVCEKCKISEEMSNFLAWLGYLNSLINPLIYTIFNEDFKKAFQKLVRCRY

[13] = target: T4, 5-hydroxytryptamine receptor 1F (Homo sapiens, UniProt P30939)
T4 sequence (P30939 whole entry): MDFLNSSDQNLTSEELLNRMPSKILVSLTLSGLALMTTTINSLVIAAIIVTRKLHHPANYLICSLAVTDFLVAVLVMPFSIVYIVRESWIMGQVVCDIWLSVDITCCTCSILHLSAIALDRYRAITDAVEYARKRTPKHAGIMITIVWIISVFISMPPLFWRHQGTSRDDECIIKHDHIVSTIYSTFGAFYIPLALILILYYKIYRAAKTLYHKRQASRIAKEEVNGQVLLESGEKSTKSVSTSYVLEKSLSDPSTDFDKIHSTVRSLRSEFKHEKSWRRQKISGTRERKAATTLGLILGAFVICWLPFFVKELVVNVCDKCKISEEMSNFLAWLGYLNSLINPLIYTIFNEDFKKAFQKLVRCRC

[14] = target: 5-hydroxytryptamine receptor 1D (Canis lupus familiaris, UniProt P11614)
[15] = target: 5-hydroxytryptamine receptor 2B (Mus musculus, UniProt Q02152)
Chain of 5-hydroxytryptamine receptor 2B (Mus musculus, UniProt Q02152) (Q02152 whole entry): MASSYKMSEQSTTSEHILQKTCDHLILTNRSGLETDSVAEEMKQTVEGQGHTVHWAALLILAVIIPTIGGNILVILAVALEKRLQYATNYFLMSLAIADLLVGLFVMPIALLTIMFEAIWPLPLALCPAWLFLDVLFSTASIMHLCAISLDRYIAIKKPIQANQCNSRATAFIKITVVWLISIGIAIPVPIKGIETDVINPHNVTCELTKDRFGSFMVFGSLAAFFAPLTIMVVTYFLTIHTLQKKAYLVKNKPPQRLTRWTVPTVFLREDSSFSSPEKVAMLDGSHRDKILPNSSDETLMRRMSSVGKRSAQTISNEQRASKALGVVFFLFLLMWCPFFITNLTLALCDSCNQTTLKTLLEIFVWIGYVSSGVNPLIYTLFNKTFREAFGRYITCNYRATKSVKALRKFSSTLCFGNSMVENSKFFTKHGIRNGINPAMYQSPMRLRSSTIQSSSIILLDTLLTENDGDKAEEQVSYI

Chain of 5-hydroxytryptamine receptor 2B (Rattus norvegicus, UniProt P30994) (P30994 whole entry): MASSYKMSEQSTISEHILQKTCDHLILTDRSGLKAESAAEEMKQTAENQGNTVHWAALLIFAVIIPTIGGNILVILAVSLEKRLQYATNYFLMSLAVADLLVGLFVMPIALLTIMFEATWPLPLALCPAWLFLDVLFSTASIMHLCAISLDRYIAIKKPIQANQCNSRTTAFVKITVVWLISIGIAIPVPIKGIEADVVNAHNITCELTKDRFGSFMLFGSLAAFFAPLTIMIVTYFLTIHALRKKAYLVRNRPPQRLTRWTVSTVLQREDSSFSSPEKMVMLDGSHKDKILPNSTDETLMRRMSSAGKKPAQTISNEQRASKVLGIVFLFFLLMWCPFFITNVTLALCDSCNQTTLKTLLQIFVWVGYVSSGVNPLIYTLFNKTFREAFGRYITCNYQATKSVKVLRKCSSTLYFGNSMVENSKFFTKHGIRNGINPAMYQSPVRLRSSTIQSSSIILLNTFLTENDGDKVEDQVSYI
Chain of 5-hydroxytryptamine receptor 7 (P32304 whole entry): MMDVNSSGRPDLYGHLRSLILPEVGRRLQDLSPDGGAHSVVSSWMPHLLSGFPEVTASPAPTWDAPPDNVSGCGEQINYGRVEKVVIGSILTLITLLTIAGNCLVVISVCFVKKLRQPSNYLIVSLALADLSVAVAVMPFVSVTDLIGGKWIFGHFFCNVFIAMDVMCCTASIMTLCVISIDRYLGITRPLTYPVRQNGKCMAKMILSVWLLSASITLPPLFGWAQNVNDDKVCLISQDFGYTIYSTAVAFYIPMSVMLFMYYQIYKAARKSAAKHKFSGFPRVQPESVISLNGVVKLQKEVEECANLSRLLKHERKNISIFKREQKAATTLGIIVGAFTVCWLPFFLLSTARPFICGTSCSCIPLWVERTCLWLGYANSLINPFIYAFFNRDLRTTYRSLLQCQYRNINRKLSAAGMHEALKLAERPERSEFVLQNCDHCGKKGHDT
Chain of 5-hydroxytryptamine receptor 1B (Rattus norvegicus, UniProt P28564) (P28564 whole entry): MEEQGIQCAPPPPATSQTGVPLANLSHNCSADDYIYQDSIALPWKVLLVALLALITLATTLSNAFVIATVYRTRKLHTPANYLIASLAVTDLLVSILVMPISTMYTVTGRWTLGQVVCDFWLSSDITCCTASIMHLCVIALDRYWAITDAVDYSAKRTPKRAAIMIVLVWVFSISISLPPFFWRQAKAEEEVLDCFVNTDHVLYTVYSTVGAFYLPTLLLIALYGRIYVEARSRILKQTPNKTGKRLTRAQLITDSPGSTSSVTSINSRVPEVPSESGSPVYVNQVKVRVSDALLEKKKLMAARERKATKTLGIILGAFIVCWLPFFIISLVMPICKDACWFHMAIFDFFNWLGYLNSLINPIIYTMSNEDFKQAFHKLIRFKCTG
Chain of 5-hydroxytryptamine receptor 1E (P28566 whole entry): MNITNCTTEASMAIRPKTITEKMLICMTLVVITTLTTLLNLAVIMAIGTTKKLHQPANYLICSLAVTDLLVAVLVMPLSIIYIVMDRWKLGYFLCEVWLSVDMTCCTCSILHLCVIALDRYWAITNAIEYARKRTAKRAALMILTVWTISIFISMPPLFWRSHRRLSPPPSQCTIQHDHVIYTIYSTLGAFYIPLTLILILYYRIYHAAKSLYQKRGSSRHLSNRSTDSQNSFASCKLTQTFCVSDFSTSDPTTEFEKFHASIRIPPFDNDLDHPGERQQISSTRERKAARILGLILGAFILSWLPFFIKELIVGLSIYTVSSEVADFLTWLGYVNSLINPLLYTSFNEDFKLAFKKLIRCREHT
Chain of 5-hydroxytryptamine receptor 1D (Rattus norvegicus, UniProt P28565) (P28565 whole entry): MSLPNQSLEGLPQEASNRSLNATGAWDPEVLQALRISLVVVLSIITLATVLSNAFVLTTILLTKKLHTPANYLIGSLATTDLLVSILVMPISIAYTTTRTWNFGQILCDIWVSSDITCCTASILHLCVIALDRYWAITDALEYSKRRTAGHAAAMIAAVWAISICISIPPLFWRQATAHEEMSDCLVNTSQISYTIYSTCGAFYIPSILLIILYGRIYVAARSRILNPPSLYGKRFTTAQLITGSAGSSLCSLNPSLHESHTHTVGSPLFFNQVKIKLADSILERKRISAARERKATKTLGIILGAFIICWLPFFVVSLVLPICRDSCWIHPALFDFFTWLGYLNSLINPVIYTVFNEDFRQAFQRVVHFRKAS
Chain of 5-hydroxytryptamine receptor 1B (Homo sapiens, UniProt P28222) (P28222 whole entry): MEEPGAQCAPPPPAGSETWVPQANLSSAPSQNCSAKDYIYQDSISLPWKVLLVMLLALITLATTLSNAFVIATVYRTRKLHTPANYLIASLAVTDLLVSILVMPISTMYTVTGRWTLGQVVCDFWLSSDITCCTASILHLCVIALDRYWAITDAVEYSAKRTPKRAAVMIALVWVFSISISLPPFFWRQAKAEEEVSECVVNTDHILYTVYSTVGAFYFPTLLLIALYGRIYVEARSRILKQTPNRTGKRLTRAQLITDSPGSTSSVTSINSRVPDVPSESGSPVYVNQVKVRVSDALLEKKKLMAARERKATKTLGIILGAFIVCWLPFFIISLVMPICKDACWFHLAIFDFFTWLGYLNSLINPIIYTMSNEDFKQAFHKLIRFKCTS
Chain of 5-hydroxytryptamine receptor 1D (Homo sapiens, UniProt P28221) (P28221 whole entry): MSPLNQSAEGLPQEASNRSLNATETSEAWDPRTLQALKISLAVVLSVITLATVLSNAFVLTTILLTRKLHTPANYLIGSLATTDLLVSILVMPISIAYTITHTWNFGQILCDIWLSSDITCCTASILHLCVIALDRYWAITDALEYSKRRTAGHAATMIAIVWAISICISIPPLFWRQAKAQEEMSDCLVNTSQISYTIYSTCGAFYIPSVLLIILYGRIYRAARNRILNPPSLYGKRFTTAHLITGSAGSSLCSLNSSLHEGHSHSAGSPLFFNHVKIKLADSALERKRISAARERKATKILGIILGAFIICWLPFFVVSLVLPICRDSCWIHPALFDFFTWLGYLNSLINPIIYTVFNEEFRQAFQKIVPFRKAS
Chain of 5-hydroxytryptamine receptor 1B (Mus musculus, UniProt P28334) (P28334 whole entry): as the sequence (P28564 whole entry) above, with T15A, A23T, D33G, D152E, V192M, V270A, E272D, T385A counted along it
Chain of 5-hydroxytryptamine receptor 1D (Canis lupus familiaris, UniProt P11614) (P11614 whole entry): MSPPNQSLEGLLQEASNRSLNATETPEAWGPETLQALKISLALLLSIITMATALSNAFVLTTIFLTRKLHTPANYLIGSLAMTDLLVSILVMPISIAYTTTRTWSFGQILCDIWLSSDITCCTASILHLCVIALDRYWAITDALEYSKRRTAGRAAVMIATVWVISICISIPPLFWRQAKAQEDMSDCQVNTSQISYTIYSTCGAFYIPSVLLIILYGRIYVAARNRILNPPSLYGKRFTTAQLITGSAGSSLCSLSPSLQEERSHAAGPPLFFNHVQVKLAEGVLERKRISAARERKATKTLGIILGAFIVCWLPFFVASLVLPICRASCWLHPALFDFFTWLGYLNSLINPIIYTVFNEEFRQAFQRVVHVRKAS
Chain of 5-hydroxytryptamine receptor 5A (P30966 whole entry): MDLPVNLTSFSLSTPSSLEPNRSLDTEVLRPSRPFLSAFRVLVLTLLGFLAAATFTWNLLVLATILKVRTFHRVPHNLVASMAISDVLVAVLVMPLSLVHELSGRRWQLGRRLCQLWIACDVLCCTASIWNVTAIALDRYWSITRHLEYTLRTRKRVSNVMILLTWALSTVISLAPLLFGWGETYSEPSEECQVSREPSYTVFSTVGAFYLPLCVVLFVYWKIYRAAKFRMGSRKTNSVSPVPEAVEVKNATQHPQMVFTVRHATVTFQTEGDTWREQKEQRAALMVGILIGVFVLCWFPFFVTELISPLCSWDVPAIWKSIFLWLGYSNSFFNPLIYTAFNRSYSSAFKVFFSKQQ

`CSc1ccc2c(c1)C(N1CCN(C)CC1)Cc1ccccc1S2` (configuration not stated) [methanesulfonic acid;1-methyl-4-(3-methylsulfanyl-5,6-dihydrobenzo[b][1]benzothiepin-5-yl)piperazine] was tested, and the Ki [1] was 0.209 µM and 0.12 µM, the Ki [2] was 0.126 µM and the Ki [3] was 1 µM. The Ki [4] was 0.0129 µM and 0.0105 µM and the Ki [5] was 0.00058 µM.

With `Clc1cccc(N2CCNCC2)c1` [mCPP] the Ki [6] was 0.0269 µM and the Ki [7] was 0.363 µM and 0.501 µM.

`CN1C2CCC1CC(OC(=O)c1c[nH]c3ccccc13)C2` (configuration not stated) gave a Ki [8] of 0.00199 µM.

`Cn1cc(CCN)c2cc(O)ccc21` [5-HT,omega-N-Me] gave a Ki [6] of 0.0105 µM.

`CN1C[C@H](CNC(=O)OCc2ccccc2)C[C@@H]2c3cccc4c3c(cn4C)C[C@H]21` [METERGOLINE] was tested, and the Ki [1] was 1.12 µM and 0.776 µM, the Ki [9] was 0.0006 µM and the Ki [10] was 0.0316 µM. The Ki [3] was 0.513 µM, the Ki [5] was 0.00077 µM and the Ki [7] was 0.00524 µM and 0.0363 µM.

`CC(C)(C)NCC(O)COc1cccc2[nH]c(C#N)cc12` (configuration not stated) [NSC_155346] gave a Ki [11] of 0.00251 µM, a Ki [4] of 0.00026 µM and a Ki [5] of 0.0363 µM. The Ki [7] was 0.0214 µM.

`FC(F)(F)c1cccc(N2CCNCC2)c1` [TFMPP] was tested, and the Ki [6] was 0.0851 µM, the Ki [12] was 0.794 µM and the Ki [5] was 0.0589 µM.

`COc1cc(CC(C)N)c(OC)cc1I` (configuration not stated) [[125I]2,5-dimethoxy-4-iodoamphetamine] showed a Ki [6] of 0.0275 µM and a Ki [13] of 2.51 µM.

In the case of `CN1CCN2c3ccccc3Cc3ccccc3[C@H]2C1` [MIANSERIN (+)], the Ki [13] is reported as 0.0126 µM, the Ki [10] is reported as 0.1 µM and the Ki [12] is reported as 0.1 µM. The Ki [5] was 0.0302 µM.

In the case of `O=C(CCCN1CCC2(CC1)C(=O)NCN2c1ccccc1)c1ccc(F)cc1` [8-[4-(4-fluorophenyl)-4-oxidanylidene-butyl]-1-phenyl-1,3,8-triazaspiro[4.5]decan-4-one], the Ki [13] is reported as 0.00398 µM, the Ki [14] is reported as 1 µM and the Ki [10] is reported as 0.0631 µM. It also gave a Ki [5] of 0.0616 µM and a Ki [15] of 0.0501 µM.

`CCC(=O)c1ccc(N)cc1` [CAS_6270] was tested, and the Ki [14] was 0.0347 µM.

Compound `CCN(CC)C(=O)[C@@H]1C=C2c3cccc4[nH]c(Br)c(c34)C[C@H]2N(C)C1` [LSD,2-Bromo] has a Ki [6] of 0.0126 µM and a Ki [10] of 0.01 µM.

In the case of `NCCc1c[nH]c2ccccc12` [1H-indole-3-ethanamine], the Ki [6] is reported as 0.2 µM and the Ki [15] is reported as 0.2 µM.

`c1ccc2c(N3CCNCC3)cccc2c1` showed a Ki [13] of 0.0537 µM, a Ki [9] of 0.00741 µM and a Ki [4] of 0.0398 µM. The Ki [7] was 0.012 µM.

For `CC(C)C[C@H]1C(=O)N2CCC[C@H]2[C@]2(O)O[C@](NC(=O)[C@@H]3C=C4c5cccc6[nH]c(Br)c(c56)C[C@H]4N(C)C3)(C(C)C)C(=O)N12` [Bromocriptine+ (GTP+)], the Ki [10] was 0.126 µM.

`CC(C)(C)[C@]1(O)CCN2C[C@H]3c4ccccc4CCc4cccc(c43)[C@@H]2C1` gave a Ki [13] of 3.89 µM and a Ki [10] of 0.0316 µM.

In the case of `CC(C)NCC(O)COc1cccc2[nH]ccc12` (configuration not stated) [LB-46], the Ki [11] is reported as 0.0631 µM.

`CN1CCc2cc(Cl)c(O)cc2[C@@H](c2ccccc2)C1` [SCH 23390,R(+)] was tested, and the Ki [6] was 0.0832 µM.
